Where “and” joins values, the source holds several entries; their conditions need not be identical. Equal values may be shown once. Each block holds one compound with its values, some of them ahead of it.
How the values were obtained:
[1] = Fluorescent AGEs formation in a BSA-fructose/glucose system; type: biochemical; details: mean ± SD, n = 3; read-out: BSA-glycation IC50
In short: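 Fluorescent AGE inhibition was measured in triplicate, correcting sample and control fluorescence for BSA-free blanks. Glycation used BSA incubated with D-fructose and D-glucose, with samples dissolved in DMSO:water (1:4).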

[2] = FRAP total antioxidant capacity; type: biochemical; details: lower part of sheet (compound series);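 further: colourimetric FRAP kit assay read as absorbance in 96-well plates, values as mM FeSO4 via standard curve, EC1 being sample concentration matching 1.0 mmol/L FeSO4, Trolox positive control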
[3] = Online UPLC-PDA-MS-ABTS·+ scavenging (postcolumn derivatisation); details: within DOF extract
Procedure: Online identification of antioxidant components of DOF extract was performed using a UPLC system (Milford, MA, USA) consisting of a Waters photodiode array detector and a Waters postcolumn derivatisation system supplying fresh ABTS solution (UPLC-PDA-QDa-ABTS). […] The detection wavelengths were set at 280 and 734 nm, and the injection volume of the sample was 10 μl.
To detect radical scavengers, the UPLC system was coupled with a Waters pump, which supplied freshly prepared ABTS·+ solution into a reaction coil (15 m, 0.25 mm ID) with a flow rate of 0.2 ml/min at 37°C. Negative peaks were recorded based on a decrease of absorbance at 729 nm after the reaction of individual compounds with the ABTS·+ radical. For preliminary identification of compounds, a Waters Acquity QDa mass detector in negative ionisation mode was connected in series to PDA with the following parameters: electrospray ion source; cone voltage, 15 V; atomiser, N2; and scanning range, 100–800 m/z.

COX-2 = biological target: T1, COX-2 (Homo sapiens, UniProt P35354); test: Anti-COX-2 assay (COX-2 Inhibitor Screening Kit); type: biochemical
T1 construct: purchased Beyotime S0168
T1 sequence (P35354 18-604): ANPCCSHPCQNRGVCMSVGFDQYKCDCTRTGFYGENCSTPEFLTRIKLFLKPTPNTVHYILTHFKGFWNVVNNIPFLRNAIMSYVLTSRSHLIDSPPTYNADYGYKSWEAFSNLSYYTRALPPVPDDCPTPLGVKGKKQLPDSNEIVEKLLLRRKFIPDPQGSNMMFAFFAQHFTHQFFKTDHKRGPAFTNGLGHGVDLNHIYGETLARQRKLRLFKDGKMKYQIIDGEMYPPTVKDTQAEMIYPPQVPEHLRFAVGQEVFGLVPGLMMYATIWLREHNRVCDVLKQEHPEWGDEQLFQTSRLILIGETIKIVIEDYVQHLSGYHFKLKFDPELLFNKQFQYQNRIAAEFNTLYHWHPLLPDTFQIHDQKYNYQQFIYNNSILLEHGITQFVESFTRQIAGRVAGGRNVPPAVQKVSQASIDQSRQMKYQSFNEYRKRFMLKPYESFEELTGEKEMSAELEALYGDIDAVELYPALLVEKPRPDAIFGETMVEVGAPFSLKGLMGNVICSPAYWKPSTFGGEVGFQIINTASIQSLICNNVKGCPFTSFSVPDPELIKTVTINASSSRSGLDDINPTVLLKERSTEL

[4] = ABTS·+ decolourisation capacity; type: biochemical; details: for ABTS scavenging rate: 0.5mM series, replicate wells, listed as T15; for IC50: mean ± SD, n = 3
In short: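 IC50 values were derived graphically from dose-inhibition curves, with % inhibition calculated versus a buffer-only (0.2 M phosphate, pH 7.4) control. Each sample (200 μl) reacted for 10 min with 100 μl ABTS·+ reagent pre-set to A729 0.8 ± 0.05, then absorbance at 729 nm was measured in triplicate.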

DPPH· scavenging = type: biochemical; details: mean ± SD, n = 3

- IC50 [1]: 213 ± 10.4 µM
- COX-2 inhibition (in words) (COX-2): great COX-2 inhibition
- COX-2 inhibition (COX-2; 3.125 μM, single replicates, listed as T15, 3.125 µM): -5.79% and 0.13% and 6.24%
- COX-2 inhibition (COX-2; 6.25 μM, single replicates, listed as T15, 6.25 µM): 11.89% and 39.51% and 35.72%
- inhibition at 12.5 µM (COX-2; 12.5 μM, single replicates): 41.8%
- COX-2 inhibition (COX-2; 12.5 μM, single replicates, listed as T15, 12.5 µM): 53.29% and 49.38%
- inhibition at 25 µM (COX-2; 25 μM, single replicates): 67.1%
- COX-2 inhibition (COX-2; 25 μM, single replicates, listed as T15, 25 µM): 72.74% and 74.72%
- inhibition at 50 µM (COX-2; 50 μM, single replicates): 78.9%
- COX-2 inhibition (COX-2; 50 μM, single replicates, listed as T15, 50 µM): 78.06% and 79.70%
- inhibition at 100 µM (COX-2; 100 μM, single replicates): 77.2%
- COX-2 inhibition (COX-2; 100 μM, single replicates, listed as T15, 100 µM): 81.94% and 80.44%
- inhibition at 200 µM (COX-2; 200 μM, single replicates): 79.2%
- COX-2 inhibition (COX-2; 200 μM, single replicates, listed as T15, 200 µM): 82.29% and 79.96%
- IC50 [4]: 10.67 ± 0.03 µM
SMILES: O=c1c(O[C@@H]2O[C@H](CO)[C@@H](O)[C@H](O)[C@H]2O)c(-c2ccc(O)c(O)c2)oc2cc(O)cc(O)c12 [compound 25, Isoquercitrin]
- FRAP EC1 [2]: 520.2 ± 17.9 µM
- online ABTS radical scavenging (size of negative peaks at 734 nm) [3]: strongest ABTS radical scavengers
- ABTS scavenging rate ([4]; concentration 7.8125 (unit not given)): 37.41% and 37.49% and 37.14%
- ABTS scavenging rate ([4]; concentration 15.625 (unit not given)): 63.25% and 62.99% and 62.91%
- ABTS scavenging rate ([4]; concentration 31.25 (unit not given)): 95.51% and 95.22% and 96.00%
- ABTS scavenging rate ([4]; concentration 62.5 (unit not given)): 99.23% and 99.50% and 99.53%
- ABTS scavenging rate ([4]; concentration 125 (unit not given)): 99.63% and 99.58% and 99.53%
- ABTS scavenging rate ([4]; concentration 250 (unit not given)): 99.04% and 98.96% and 98.89%
- ABTS scavenging rate ([4]; concentration 500 (unit not given)): 99.05% (2×) and 99.02%

- IC50 (DPPH· scavenging): > 5000 µM
- IC50 [1]: 258 ± 7.56 µM
- COX-2 inhibition (in words) (COX-2): no inhibitory effects
- inhibition at 31.25 µM (COX-2; 31.25 μM, single replicates): 30%
- COX-2 inhibition (COX-2; 31.25 μM, single replicates, listed as T7, 31.25 µM): 20.65% and 19.20%
- COX-2 inhibition (COX-2; 62.5 μM, single replicates, listed as T7, 62.5 µM): -16.69% and -16.14% and 33.41%
- COX-2 inhibition (COX-2; 125 μM, single replicates, listed as T7, 125 µM): -28.47% and -18.44% and 17.41%
- COX-2 inhibition (COX-2; 250 μM, single replicates, listed as T7, 250 µM): -29.84% and -23.37% and -7.75%
- COX-2 inhibition (COX-2; 500 μM, single replicates, listed as T7, 500 µM): -24.98% and -23.56% and -9.18%
- COX-2 inhibition (COX-2; 1000 μM, single replicates, listed as T7, 1000 µM): -59.66% and -32.74% and -11.22%
- COX-2 inhibition (COX-2; 2000 μM (2mM), single replicates, listed as T7): -38.84% and -31.81% and -15.79%
- IC50 [4]: 74.41 ± 0.69 µM
SMILES: O=c1cc(-c2ccc(O)cc2)oc2c(C3OC(CO)C(O)C(O)C3O)c(O)c(C3OC(CO)C(O)C(O)C3O)c(O)c12 (centres unmarked) [compound 10, Vicenin-2]
- FRAP EC1 [2]: >5000 µM
- online ABTS radical scavenging (size of negative peaks at 734 nm) [3]: strongest ABTS radical scavengers

From publication PMC10064984, “Anti-cyclooxygenase, anti-glycation, and anti-skin aging effect of Dendrobium officinale flowers’ aqueous extract and its phytochemical validation in aging” (Frontiers in Immunology, 2023)
